Our source for the IC50 values is patent publication US9315494B2, “Alkyl-amide-substituted pyridyl compounds useful as modulators of IL-12, IL-23 and/or IFNα responses” (Bristol-Myers Squibb Company, priority 2012, dated 2016).

The subject of test [1] is IL-23-stimulated STAT-dependent luciferase reporter in Kit225 T cells. Nature of the test: Kit225 T cell assay, IL-23 stimulated STAT-dependent luciferase reporter. In kind it is cell-based, human. Particulars: Kit225 T cells, 20 ng/mL human recombinant IL-23, 5-6 hours, luciferase; read-out: IL23 (Kit225 T Cell Inhibition Data). The procedure:
(§1) Kit225 T cells with a stably-integrated STAT-dependent luciferase reporter were plated in RPMI (Gibco) containing 10% heat-inactivated FBS (Gibco) and 100 U/mL PenStrep (Gibco). The cells were then stimulated with either 20 ng/mL human recombinant IL-23 or 200 U/mL human recombinant IFNα (PBL InterferonSource) for 5-6 hours. Luciferase expression was measured using the STEADY-GLO® Luciferase Assay System (Promega) according to the manufacturer's instructions.

The test system of test [2] is IFNα-stimulated STAT-dependent luciferase reporter in Kit225 T cells. Nature of the test: Kit225 T cell assay, IFNα stimulated STAT-dependent luciferase reporter. Format: cell-based, human. Particulars: Kit225 T cells, 200 U/mL human recombinant IFNα, 5-6 hours, luciferase; read-out: IFNα (Kit225 T Cell Inhibition Data). How it is done:
as §1

Consider `CNC(=O)c1cnc(Nc2ccc(F)cn2)cc1Nc1ccccc1S(C)(=O)=O` [Example 1], for which the values for the IC50 in test [1] and in test [2] were 98.5 nM and 70 nM, respectively.
On the same counts, the results for `CNC(=O)c1cnc(Nc2ccccn2)cc1Nc1ccccc1S(C)(=O)=O` [Example 3] are 61.4 nM and 70 nM.
Taken in the same sequence, the figures for `CNC(=O)c1cnc(Nc2cc(C)ccn2)cc1Nc1ccccc1S(C)(=O)=O` [Example 4] were 36 nM and 30 nM.
Taken in the same sequence, the figures for `CNC(=O)c1cnc(Nc2cc(C#N)ccn2)cc1Nc1ccccc1S(C)(=O)=O` [Example 5] were 82.2 nM and 50 nM.
Consider `CNC(=O)c1cnc(Nc2ccc(F)cn2)cc1Nc1ccc(OC)cc1S(C)(=O)=O` [Example 6], for which the figures for the IC50 in test [1] and in test [2] were 91 nM and 110 nM, respectively.
On the same counts, the results for `CNC(=O)c1cnc(Nc2ccc(N3CCOCC3)cn2)cc1Nc1ccc(OC)cc1S(C)(=O)=O` [Example 7] are 154 nM and 100 nM.
Taken in the same sequence, the figures for `CNC(=O)c1cnc(Nc2ccccn2)cc1Nc1ccc(OC)cc1S(C)(=O)=O` [Example 8] were 143 nM and 60 nM.
On the same counts, the results for `CNC(=O)c1cnc(Nc2ccc(N3CCOCC3)cn2)cc1Nc1ccccc1S(C)(=O)=O` [Example 9] are 97.8 nM and 40 nM.
As to `CNC(=O)c1cnc(Nc2ccccn2)cc1Nc1ccc(F)cc1S(C)(=O)=O` [Example 10], the IC50 came out at 218 nM in test [1] and 120 nM in test [2].
Taken in the same sequence, the figures for `CNC(=O)c1cnc(Nc2ccc(F)cn2)cc1Nc1ccc(Cl)cc1S(C)(=O)=O` [Example 11] were 161 nM and 60 nM.
Turning to `CNC(=O)c1cnc(Nc2ccccn2)cc1Nc1ccc(Cl)cc1S(C)(=O)=O` [Example 12], the IC50 was determined as 109 nM in test [1] and 50 nM in test [2].
`CNC(=O)c1cnc(Nc2ccc(F)cn2)cc1Nc1ccc(F)cc1S(C)(=O)=O` [Example 13]: the IC50 was found to be 257 nM in test [1] and 120 nM in test [2].
Taken in the same sequence, the figures for `CNC(=O)c1cnc(Nc2cc(C(F)(F)F)ccn2)cc1Nc1ccccc1S(C)(=O)=O` [Example 14] were 135 nM and 110 nM.
Taken in the same sequence, the figures for `CNC(=O)c1cnc(Nc2cc(OC)ccn2)cc1Nc1ccccc1S(C)(=O)=O` [Example 15] were 108 nM and 80 nM.
As to `CNC(=O)c1cnc(Nc2cccc(C(F)(F)F)n2)cc1Nc1ccccc1S(C)(=O)=O` [Example 16], the IC50 in test [1] stood at 180 nM; in test [2], 100 nM.
Taken in the same sequence, the figures for `CNC(=O)c1cnc(Nc2ccc(Cl)cn2)cc1Nc1ccccc1S(C)(=O)=O` [Example 17] were 104 nM and 100 nM.
On the same counts, the results for `CNC(=O)c1cnc(Nc2cc(C(C)(C)C)ccn2)cc1Nc1ccccc1S(C)(=O)=O` [Example 18] are 1120 nM and 400 nM.
As for `CNC(=O)c1cnc(Nc2cc(S(=O)(=O)N(C)C)ccn2)cc1Nc1ccccc1S(C)(=O)=O` [Example 19], the IC50 in test [1] was 749 nM; in test [2], 430 nM.
Taken in the same sequence, the figures for `CNC(=O)c1cnc(Nc2cccc(F)n2)cc1Nc1ccccc1S(C)(=O)=O` [Example 20] were 50.7 nM and 40 nM.
On the same counts, the results for `CNC(=O)c1cnc(Nc2cccc(C)n2)cc1Nc1ccccc1S(C)(=O)=O` [Example 21] are 50.9 nM and 30 nM.
On the same counts, the results for `CNC(=O)c1cnc(Nc2ccc(C)cn2)cc1Nc1ccccc1S(C)(=O)=O` [Example 22] are 64.9 nM and 50 nM.
As for `CNC(=O)c1cnc(Nc2cc(F)ccn2)cc1Nc1ccccc1S(C)(=O)=O` [Example 23], the figures for the IC50 in test [1] and in test [2] were 115 nM and 90 nM, respectively.
On the same counts, the results for `CNC(=O)c1cnc(Nc2cccc(OC)n2)cc1Nc1ccccc1S(C)(=O)=O` [Example 24] are 35.2 nM and 40 nM.
Taken in the same sequence, the figures for `CNC(=O)c1cnc(Nc2cc3ccccc3cn2)cc1Nc1ccccc1S(C)(=O)=O` [Example 25] were 87.7 nM and 110 nM.
On the same counts, the results for `CNC(=O)c1cnc(Nc2cc(C(C)=O)ccn2)cc1Nc1ccccc1S(C)(=O)=O` [Example 26] are 1060 nM and 670 nM.
On to `CNC(=O)c1cnc(Nc2cccc(C#N)n2)cc1Nc1ccccc1S(C)(=O)=O` [Example 27], for which the IC50 in test [1] amounted to 376 nM; in test [2], 180 nM.
For the compound `CNC(=O)c1cnc(Nc2ccc(F)cn2)cc1Nc1ccccc1S(=O)(=O)C(F)(F)F` [Example 28], the IC50 in test [2] was 9570 nM.
For the compound `CNC(=O)c1cnc(Nc2ccccn2)cc1Nc1ccccc1S(=O)(=O)C(F)(F)F` [Example 29], the IC50 in test [1] is 7110 nM; in test [2], 7980 nM.
On the same counts, the results for `CNC(=O)c1cnc(Nc2cc(C#N)ccn2)cc1Nc1ccccc1S(C)(=O)=O` [Example 30] are 753 nM and 580 nM.
Taken in the same sequence, the figures for `CCS(=O)(=O)c1ccccc1Nc1cc(Nc2ccccn2)ncc1C(=O)NC` [Example 31] were 1860 nM and 1230 nM.
On to `CCS(=O)(=O)c1ccccc1Nc1cc(Nc2ccc(F)cn2)ncc1C(=O)NC` [Example 32], for which the IC50 in test [1] was found to be 2200 nM; in test [2] it was 1080 nM.
On the same counts, the results for `CCS(=O)(=O)c1ccccc1Nc1cc(Nc2cc(C#N)ccn2)ncc1C(=O)NC` [Example 33] are 612 nM and 660 nM.
On the same counts, the results for `CNC(=O)c1cnc(Nc2cc(C#N)ccn2)cc1Nc1ccc(F)cc1S(C)(=O)=O` [Example 34] are 114 nM and 160 nM.
Take `CNC(=O)c1cnc(Nc2cc(C#N)ccn2)cc1Nc1cccc(S(C)(=O)=O)c1F` [Example 35]: the IC50 in test [1] was determined as 4430 nM.
Consider `CNC(=O)c1cnc(Nc2cccnn2)cc1Nc1ccccc1S(C)(=O)=O` [Example 36], for which the IC50 in test [1] came out at 1310 nM; in test [2], 700 nM.
Taken in the same sequence, the figures for `CNC(=O)c1cnc(Nc2ccncn2)cc1Nc1ccccc1S(C)(=O)=O` [Example 37] were 690 nM and 1150 nM.
On the same counts, the results for `CNC(=O)c1cnc(Nc2cnccn2)cc1Nc1ccccc1S(C)(=O)=O` [Example 38] are 550 nM and 370 nM.
Taken in the same sequence, the figures for `CNC(=O)c1cnc(Nc2cnccn2)cc1Nc1ccc(F)cc1S(C)(=O)=O` [Example 39] were 1480 nM and 1540 nM.
For the compound `CNC(=O)c1cnc(Nc2cnc(C)cn2)cc1Nc1ccccc1S(C)(=O)=O` [Example 40], the IC50 in test [1] and in test [2] was 130 nM each time.
For `CNC(=O)c1cnc(Nc2cnc(C#N)cn2)cc1Nc1ccccc1S(C)(=O)=O` [Example 41], the IC50 amounted to 6120 nM in test [1] and 1910 nM in test [2].
On the same counts, the results for `CNC(=O)c1cnc(Nc2ccc(F)cn2)cc1Nc1ccc(S(C)(=O)=O)cc1OC` [Example 44] are 1240 nM and 1460 nM.
Taken in the same sequence, the figures for `CNC(=O)c1cnc(Nc2ccccn2)cc1Nc1ccc(S(C)(=O)=O)cc1OC` [Example 45] were 4260 nM and 1250 nM.
Regarding `CNC(=O)c1cnc(Nc2ccccn2)cc1Nc1cccc(F)c1S(C)(=O)=O` [Example 46], the IC50 is 2980 nM in test [1] and 1390 nM in test [2].
On the same counts, the results for `CNC(=O)c1cnc(Nc2ccc(F)cn2)cc1Nc1cccc(F)c1S(C)(=O)=O` [Example 47] are 2410 nM and 1680 nM.
On the same counts, the results for `CNC(=O)c1cnc(Nc2cc(C#N)ccn2)cc1Nc1cccc(F)c1S(C)(=O)=O` [Example 48] are 1610 nM and 960 nM.
As for `CNC(=O)c1cnc(Nc2cc(C)ccn2)cc1Nc1cccc(F)c1S(C)(=O)=O` [Example 49], the IC50 in test [1] was found to be 410 nM; in test [2], 540 nM.
Taken in the same sequence, the figures for `CNC(=O)c1cnc(Nc2cc(F)ccn2)cc1Nc1cccc(F)c1S(C)(=O)=O` [Example 50] were 1540 nM and 2000 nM.
On the same counts, the results for `CNC(=O)c1cnc(Nc2cc(F)ccn2)cc1Nc1ccc(F)cc1S(C)(=O)=O` [Example 51] are 270 nM and 200 nM.
Taken in the same sequence, the figures for `CNC(=O)c1cnc(Nc2cc(C)ccn2)cc1Nc1ccc(F)cc1S(C)(=O)=O` [Example 52] were 200 nM and 90 nM.
Regarding `CNC(=O)c1cnc(Nc2ccccn2)cc1Nc1cc(F)ccc1S(C)(=O)=O` [Example 53], the IC50 stood at 90 nM in test [1] and 80 nM in test [2].
`CNC(=O)c1cnc(Nc2ccc(C(N)=O)cn2)cc1Nc1ccccc1C(N)=O` [Example 93]: in test [1], the IC50 came out at 466 nM.
Still for that read-out and setting: the figure for `CNC(=O)c1cnc(Nc2cc(C#N)ccn2)cc1Nc1cccc(C)c1C(N)=O` [Example 177] is 388 nM; for `CNC(=O)c1cnc(Nc2ccc(C(F)(F)F)cn2)cc1Nc1ccccc1C(C)(C)O` [Example 181] it is 6170 nM; for `CNC(=O)c1cnc(Nc2cccnn2)cc1Nc1ccccc1C(C)(C)O` [Example 182] it is 8850 nM.
Take `CNC(=O)c1cnc(Nc2ccc(F)cn2)cc1Nc1ccc(F)cc1C` [Example 189]: in test [2], the IC50 was determined as 9370 nM.
With `CNC(=O)c1cnc(Nc2ccc(F)cn2)cc1Nc1cccc(OC)c1` [Example 202], the IC50 in test [2] was 6560 nM.
On the same count and under the same terms, with `CNC(=O)c1cnc(Nc2ccc(F)cn2)cc1Nc1cc2ccccc2cc1C(N)=O` [Example 253] the figure was 440 nM.
In the case of `CNC(=O)c1cnc(Nc2cc(S(C)(=O)=O)ccn2)cc1Nc1cccc(F)c1OC` [Example 282], in test [1], the IC50 was 511 nM.
